Source: ChEMBL document CHEMBL1139203, “Syntheses and antiproliferative evaluation of oxyphenisatin derivatives” (Bioorg Med Chem Lett, 2007)
In brackets after ≈: the same amount, converted by molar mass.

Experiments:
[1] = Antiproliferative activity against human MDA468 cells; format: functional, cell-based; details: MDA-MB-468
[2] = Antiproliferative activity against human MDA231 cells; format: functional, cell-based; details: MDA-MB-231
[3] = Aqueous solubility at pH 7.0; format: physicochemical
Cytochrome P450 1A2 = target: T1, Cytochrome P450 1A2 (Homo sapiens, UniProt P05177); assay: Inhibition of human CYP1A2; format: ADME
T1 sequence (P05177 whole entry): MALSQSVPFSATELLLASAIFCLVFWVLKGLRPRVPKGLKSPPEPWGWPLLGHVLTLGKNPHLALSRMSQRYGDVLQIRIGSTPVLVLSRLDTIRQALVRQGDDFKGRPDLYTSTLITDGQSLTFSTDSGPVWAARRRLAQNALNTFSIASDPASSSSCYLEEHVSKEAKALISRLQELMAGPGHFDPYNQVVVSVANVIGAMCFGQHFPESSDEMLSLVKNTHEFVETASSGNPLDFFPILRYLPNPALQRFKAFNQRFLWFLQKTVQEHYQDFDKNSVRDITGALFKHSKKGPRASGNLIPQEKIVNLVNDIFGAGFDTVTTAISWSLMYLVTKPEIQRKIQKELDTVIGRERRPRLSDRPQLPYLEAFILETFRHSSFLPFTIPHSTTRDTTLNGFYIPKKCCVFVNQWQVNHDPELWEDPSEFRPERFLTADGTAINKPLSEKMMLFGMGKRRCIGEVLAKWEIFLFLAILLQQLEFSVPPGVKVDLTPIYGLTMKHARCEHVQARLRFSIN

Cytochrome P450 3A4 = Cytochrome P450 3A4 (Homo sapiens, UniProt P08684); assay: Inhibition of human CYP3A4; format: ADME
Sequence of Cytochrome P450 3A4 (P08684 whole entry): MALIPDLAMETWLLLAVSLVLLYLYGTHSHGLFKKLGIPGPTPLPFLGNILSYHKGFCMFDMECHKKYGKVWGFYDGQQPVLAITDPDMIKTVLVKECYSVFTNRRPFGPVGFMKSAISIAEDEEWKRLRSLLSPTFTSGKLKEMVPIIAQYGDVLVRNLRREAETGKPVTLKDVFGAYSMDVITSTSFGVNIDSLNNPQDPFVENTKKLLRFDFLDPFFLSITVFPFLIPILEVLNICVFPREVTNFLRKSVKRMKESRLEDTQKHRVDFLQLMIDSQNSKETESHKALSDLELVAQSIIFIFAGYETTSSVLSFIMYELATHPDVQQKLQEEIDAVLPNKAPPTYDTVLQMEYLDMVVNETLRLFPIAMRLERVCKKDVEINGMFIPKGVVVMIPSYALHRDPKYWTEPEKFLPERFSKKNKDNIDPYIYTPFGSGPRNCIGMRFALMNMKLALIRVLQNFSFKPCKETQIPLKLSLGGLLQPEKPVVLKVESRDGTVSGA

Cytochrome P450 2D6 = Cytochrome P450 2D6 (Homo sapiens, UniProt P10635); assay: Inhibition of human CYP2D6; format: ADME
Sequence of Cytochrome P450 2D6 (P10635 whole entry): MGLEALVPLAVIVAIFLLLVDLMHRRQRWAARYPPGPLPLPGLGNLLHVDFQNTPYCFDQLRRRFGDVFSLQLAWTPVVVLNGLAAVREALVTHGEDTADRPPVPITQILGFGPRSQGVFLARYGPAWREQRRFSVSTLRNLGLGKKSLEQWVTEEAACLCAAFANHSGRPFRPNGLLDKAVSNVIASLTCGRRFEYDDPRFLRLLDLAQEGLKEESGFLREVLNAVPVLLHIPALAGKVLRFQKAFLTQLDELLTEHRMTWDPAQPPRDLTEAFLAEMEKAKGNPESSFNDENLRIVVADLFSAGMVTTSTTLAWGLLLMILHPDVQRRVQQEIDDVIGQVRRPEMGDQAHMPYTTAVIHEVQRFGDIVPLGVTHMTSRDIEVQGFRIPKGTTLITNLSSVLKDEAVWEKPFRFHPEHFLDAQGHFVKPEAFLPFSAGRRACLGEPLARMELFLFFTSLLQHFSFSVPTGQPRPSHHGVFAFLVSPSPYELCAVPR

Cytochrome P450 2C19 = Cytochrome P450 2C19 (Homo sapiens, UniProt P33261); assay: Inhibition of human CYP2C19; format: ADME
Sequence of Cytochrome P450 2C19 (P33261 whole entry): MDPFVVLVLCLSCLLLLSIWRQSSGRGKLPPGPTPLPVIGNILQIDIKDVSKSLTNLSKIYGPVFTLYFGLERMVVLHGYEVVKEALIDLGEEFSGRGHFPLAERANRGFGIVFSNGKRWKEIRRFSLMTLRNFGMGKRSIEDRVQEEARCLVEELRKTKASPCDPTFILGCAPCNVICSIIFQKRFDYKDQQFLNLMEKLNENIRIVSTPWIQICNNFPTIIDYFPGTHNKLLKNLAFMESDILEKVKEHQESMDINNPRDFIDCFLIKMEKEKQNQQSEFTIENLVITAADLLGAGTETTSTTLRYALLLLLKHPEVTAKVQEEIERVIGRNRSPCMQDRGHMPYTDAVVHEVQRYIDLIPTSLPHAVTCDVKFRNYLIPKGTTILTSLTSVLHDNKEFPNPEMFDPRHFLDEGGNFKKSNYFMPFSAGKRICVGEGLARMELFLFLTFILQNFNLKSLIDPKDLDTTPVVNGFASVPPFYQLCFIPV

Cytochrome P450 2C9 = Cytochrome P450 2C9 (Homo sapiens, UniProt P11712); assay: Inhibition of human CYP2C9; format: ADME
Sequence of Cytochrome P450 2C9 (P11712 whole entry): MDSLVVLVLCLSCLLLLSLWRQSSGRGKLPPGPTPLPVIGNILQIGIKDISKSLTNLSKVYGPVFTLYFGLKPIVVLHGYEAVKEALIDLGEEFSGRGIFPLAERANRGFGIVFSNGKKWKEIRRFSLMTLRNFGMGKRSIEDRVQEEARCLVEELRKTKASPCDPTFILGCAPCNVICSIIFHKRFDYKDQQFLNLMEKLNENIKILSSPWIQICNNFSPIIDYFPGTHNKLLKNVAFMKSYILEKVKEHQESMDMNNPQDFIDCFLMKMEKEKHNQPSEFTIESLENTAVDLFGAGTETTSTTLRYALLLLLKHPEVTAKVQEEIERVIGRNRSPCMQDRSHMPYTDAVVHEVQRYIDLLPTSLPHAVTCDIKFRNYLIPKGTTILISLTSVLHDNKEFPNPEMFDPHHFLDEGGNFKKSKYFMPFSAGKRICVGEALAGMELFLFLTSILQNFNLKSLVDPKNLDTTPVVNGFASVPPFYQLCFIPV

[4] = Permeability across human Caco-2 cell membrane; format: ADME, cell-based; details: read-out: permeability
Serum = assay: Protein binding to human serum; format: ADME, cell-free

SMILES	IC50 [1]	IC50 [2]	also measured
O=C1Nc2c(I)cccc2C1(c1ccc(O)cc1)c1ccc(O)cc1	0.062 µM	> 3 µM	–
O=C1Nc2c(C(F)(F)F)cccc2C1(c1ccc(O)cc1)c1ccc(O)cc1	–	–	solubility [3]: 0.64 mg/mL (≈ 1660 µM); Activity (Cytochrome P450 1A2): > 10 µM; Activity (Cytochrome P450 3A4): > 10 µM; Activity (Cytochrome P450 2D6): > 10 µM; Activity (Cytochrome P450 2C19): 1 µM; Activity (Cytochrome P450 2C9): 1 µM; Papp [4]: 19.6 nm/s
O=C(O)c1cccc2c1NC(=O)C2(c1ccc(O)cc1)c1ccc(O)cc1	> 3 µM	> 3 µM	–
O=C1Nc2c(ccc(F)c2F)C1(c1ccc(O)cc1)c1ccc(O)cc1	0.003 µM	> 3 µM	solubility [3]: 0.23 mg/mL (≈ 651 µM); Activity (Cytochrome P450 1A2): > 10 µM; Activity (Cytochrome P450 3A4): > 10 µM; Activity (Serum): 98%; Activity (Cytochrome P450 2D6): > 10 µM; Activity (Cytochrome P450 2C19): 1 µM; Activity (Cytochrome P450 2C9): 1 µM; Papp [4]: 43.1 nm/s
COc1ccc(C2(c3ccc(OC)cc3)C(=O)Nc3ccccc32)cc1	1.8 µM	> 3 µM	–
Cc1cccc2c1NC(=O)C2(c1ccc(O)cc1)c1ccc(O)cc1	0.027 µM	> 3 µM	–
O=C1Nc2c(ccc3c2CCCCC3)C1(c1ccc(O)cc1)c1ccc(O)cc1	0.055 µM	> 3 µM	–
N#Cc1cccc2c1NC(=O)C2(c1ccc(O)cc1)c1ccc(O)cc1	0.057 µM	> 3 µM	–
O=C1Nc2ccccc2C1(c1ccc(O)cc1)c1ccc(O)cc1 [OXYPHENISATINE]	0.112 µM	> 3 µM	–
